Reference: ChEMBL document CHEMBL3808363, “2-(Thienothiazolylimino)-1,3-thiazolidin-4-ones inhibit cell division cycle 25 A phosphatase” (Bioorg Med Chem, 2016)
The source made the active and inactive calls. The calls are words filed in the database; no cut-off is given here.

Assays:
MCF7 [1] = assay: Antiproliferative activity against human MCF7 cells assessed as cell viability at IC50 concentration after 48 hrs by 2',7'-dichlorofluorescin diacetate/PI staining based flow cytometry; type: functional
[2] = molecular target: T1, M-phase inducer phosphatase 3 (Homo sapiens) (UniProt P30307); assay: (§1) Inhibition of human recombinant full length GST-tagged CDC25C transfected in Escherichia coli BL21-DE3 using 3-O-methylfluorescein phosphate as substrate at 10 uM incubated for 20 mins followed by substrate addition measured every 10 mins for 2 hrs by fluorimetric assay
T1 sequence (whole entry): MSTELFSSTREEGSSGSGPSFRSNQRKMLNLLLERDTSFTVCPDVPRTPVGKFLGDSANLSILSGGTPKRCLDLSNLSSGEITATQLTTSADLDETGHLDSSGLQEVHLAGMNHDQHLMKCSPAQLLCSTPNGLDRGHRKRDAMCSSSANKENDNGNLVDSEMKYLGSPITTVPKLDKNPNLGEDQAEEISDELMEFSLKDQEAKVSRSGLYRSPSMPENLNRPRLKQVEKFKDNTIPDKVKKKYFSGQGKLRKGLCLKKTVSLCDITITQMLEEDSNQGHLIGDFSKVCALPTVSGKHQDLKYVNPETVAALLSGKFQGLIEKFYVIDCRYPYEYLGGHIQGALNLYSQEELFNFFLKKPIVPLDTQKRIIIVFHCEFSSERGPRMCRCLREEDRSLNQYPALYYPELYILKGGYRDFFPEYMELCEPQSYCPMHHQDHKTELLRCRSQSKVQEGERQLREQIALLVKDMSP

[3] = molecular target: T2, M-phase inducer phosphatase 1 (Homo sapiens) (UniProt P30304); assay: as §1, with “CDC25A” for “CDC25C”, “assay in presence of 0.01% triton X 100” for “assay”
T2 sequence (whole entry): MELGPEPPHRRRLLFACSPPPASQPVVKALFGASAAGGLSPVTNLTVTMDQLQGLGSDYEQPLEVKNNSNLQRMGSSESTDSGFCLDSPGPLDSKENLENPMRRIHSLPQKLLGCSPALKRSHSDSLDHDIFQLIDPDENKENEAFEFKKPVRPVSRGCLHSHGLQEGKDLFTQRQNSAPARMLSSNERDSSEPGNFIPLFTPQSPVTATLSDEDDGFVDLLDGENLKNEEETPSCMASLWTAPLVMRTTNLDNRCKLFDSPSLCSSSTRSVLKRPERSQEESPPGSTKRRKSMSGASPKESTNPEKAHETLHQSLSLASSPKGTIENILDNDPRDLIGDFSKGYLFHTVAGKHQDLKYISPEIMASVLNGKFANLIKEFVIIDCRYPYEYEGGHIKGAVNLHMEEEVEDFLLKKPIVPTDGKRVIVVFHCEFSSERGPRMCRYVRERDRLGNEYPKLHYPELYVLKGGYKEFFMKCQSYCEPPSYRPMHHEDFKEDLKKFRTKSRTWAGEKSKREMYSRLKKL

[4] = molecular target: T2, M-phase inducer phosphatase 1 (Homo sapiens); assay: as §1, with “CDC25A” for “CDC25C”, “assay in presence of 0.025% triton X 100” for “assay”
[5] = molecular target: T2, M-phase inducer phosphatase 1 (Homo sapiens); assay: as §1, with “CDC25A” for “CDC25C”, “assay in presence of 0.5% triton X 100” for “assay”
[6] = molecular target: T2, M-phase inducer phosphatase 1 (Homo sapiens); assay: Reversible binding affinity to human recombinant full length GST-tagged CDC25A transfected in Escherichia coli BL21-DE3 after 1 hr by MALDI-TOF mass spectrometry
[7] = molecular target: T3, M-phase inducer phosphatase 1 (Homo sapiens, UniProt P30304); assay: (§2) Mixed type inhibition of human recombinant full length GST-tagged CDC25A transfected in Escherichia coli BL21-DE3 assessed as enzyme/inhibitor complex using 3-O-methylfluorescein phosphate as substrate at 5 uM incubated for 20 mins followed by substrate addition measured every 10 mins for 2 hrs by fluorimetric assay
T3 sequence (P30304 whole entry): T2 sequence (whole entry)

[8] = molecular target: T3, M-phase inducer phosphatase 1; assay: as §2, with “at 20” for “at 5”
[9] = molecular target: T3, M-phase inducer phosphatase 1; assay: as §2, with “as enzyme/substrate/inhibitor” for “as enzyme/inhibitor”, “at 20” for “at 5”
MCF7 [10] = assay: Cell cycle arrest in human MCF7 cells assessed as accumulation at G0/G1 phase at IC50 concentration after 48 hrs by propidium iodide staining-based flow cytometry (reference value: 66.7 +/- 1.6%); type: functional
MCF7 [11] = assay: Cell cycle arrest in human MCF7 cells assessed as accumulation at S phase at IC50 concentration after 48 hrs by propidium iodide staining-based flow cytometry (reference value: 19.5 +/- 0.6%); type: functional
MCF7 [12] = assay: Cell cycle arrest in human MCF7 cells assessed as accumulation at G2/M phase at IC50 concentration after 48 hrs by propidium iodide staining-based flow cytometry (reference value: 13.8 +/- 1%); type: functional
MDA-MB-231 [13] = assay: Cell cycle arrest in human MDA-MB-231 cells assessed as accumulation at G2/M phase at IC50 concentration after 48 hrs by propidium iodide staining-based flow cytometry (reference value: 20.9 +/- 1.1%); type: functional
MDA-MB-231 [14] = assay: Cell cycle arrest in human MDA-MB-231 cells assessed as accumulation at subG1 phase at IC50 concentration after 48 hrs by propidium iodide staining-based flow cytometry; type: functional
MDA-MB-231 [15] = assay: Induction of apoptosis in human MDA-MB-231 cells assessed as chromatin condensation after 24 to 48 hrs by DAPI staining based UV fluorescent microscopy; type: functional, cell-based
[16] = molecular target: Cyclin-dependent kinase 1 (Homo sapiens) (UniProt P06493); assay: Effect on CDK1 phosphorylation in human MCF7 cells after 6 hrs by Western blot analysis; type: cell-based
MDA-MB-231 [17] = assay: Increase in RNS levels in human MDA-MB-231 cells at IC50 concentration incubated for 24 hrs by DAF-2DA dye based flow cytometry; type: functional, cell-based
[18] = Cytotoxicity against human HCT116 cells assessed as inhibition of cell growth after 72 hrs by MTT assay; type: functional, cell-based; conditions: HCT-116, 72 h
MCF7 [19] = assay: Cytotoxicity against human MCF7 cells assessed as inhibition of cell growth after 72 hrs by MTT assay; type: functional, cell-based; conditions: MCF7, 72 h
MCF7 [20] = assay: Cytotoxicity against human MCF7 cells assessed as inhibition of cell growth at IC50 concentration after 72 hrs by trypan blue assay; type: functional
MDA-MB-231 [21] = assay: Induction of autophagy in human MDA-MB-231 cells assessed as acidic vesicles at 8.4 uM over 3 days by acridine orange dye based flow cytometry; type: functional, cell-based
MDA-MB-231 [22] = assay: Cytotoxicity against human MDA-MB-231 cells assessed as inhibition of cell growth at IC50 concentration after 72 hrs by trypan blue assay; type: functional

Sequence of Cyclin-dependent kinase 1 (Homo sapiens) (P06493 whole entry, looked up): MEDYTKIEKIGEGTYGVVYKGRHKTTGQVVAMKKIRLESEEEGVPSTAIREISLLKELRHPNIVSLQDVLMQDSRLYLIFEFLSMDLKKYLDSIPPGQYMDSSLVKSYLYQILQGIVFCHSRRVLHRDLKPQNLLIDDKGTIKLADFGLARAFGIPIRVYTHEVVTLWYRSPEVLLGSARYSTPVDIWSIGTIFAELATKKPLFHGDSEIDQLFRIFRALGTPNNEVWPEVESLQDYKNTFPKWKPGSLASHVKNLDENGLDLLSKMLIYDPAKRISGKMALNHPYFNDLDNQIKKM

**Q.** For `COc1ccc(/C=C2/S/C(=N\c3nc4cc(-c5ccc(Cl)cc5)sc4s3)NC2=O)cc1`, which Activity (MCF7 [1]) is on record?
**A.** The Activity was “inactive”.

**Q.** What about the inhibition [2] of the same compound?
**A.** The inhibition was 24%.

**Q.** What about the inhibition [3] of the same compound?
**A.** Its inhibition is 28.2%.

**Q.** And the inhibition [4]?
**A.** The inhibition was 27.1%.

**Q.** And the inhibition [5]?
**A.** The inhibition was 97.5%.

**Q.** And the Activity [6]?
**A.** Its Activity is “Active”.

**Q.** What about the Ki [7] of the same compound?
**A.** The Ki was 37.1 µM.

**Q.** And the Ki [8]?
**A.** Its Ki is 3.1 µM.

**Q.** And the Ki [9]?
**A.** Its Ki is 3.9 µM.

**Q.** And the Activity (MCF7 [10])?
**A.** Its Activity is 58.8%.

**Q.** And the Activity (MCF7 [11])?
**A.** The Activity was 25.3%.

**Q.** And the Activity (MCF7 [12])?
**A.** Its Activity is 15.8%.

**Q.** And the Activity (MDA-MB-231 [13])?
**A.** The Activity was 15.9%.

**Q.** And the Activity (MDA-MB-231 [14])?
**A.** Its Activity is “inactive”.

**Q.** What about the Activity (MDA-MB-231 [15]) of the same compound?
**A.** The Activity was “inactive”.

**Q.** What about the Activity [16] of the same compound?
**A.** The Activity was “inactive”.

**Q.** And the Activity (MDA-MB-231 [17])?
**A.** The Activity was “Active”.

**Q.** What about the IC50 [18] of the same compound?
**A.** The IC50 was 9.2 µM.

**Q.** And the IC50 (MCF7 [19])?
**A.** The IC50 was 5.1 µM.

**Q.** And the “growth inhibition (GI)” value (MCF7 [20])?
**A.** Its value is 45%.

**Q.** And the Activity (MDA-MB-231 [21])?
**A.** Its Activity is “inactive”.

**Q.** What about the “growth inhibition (GI)” value (MDA-MB-231 [22]) of the same compound?
**A.** The value was 70%.
